According to the supplement of paper PMC10307832:

Assays:
Assay in all cases: relative viability (nuclei count vs DMSO), 5 days (fraction); higher = more cells survive
[1] = compound: C1=CC=C2C(=C1)N=C(S2)C(C#N)C3=NC(=NC=C3)NCCC4=CN=CC=C4 + Nc1nc2[nH]cc(CCc3ccc(C(=O)N[C@@H](CCC(=O)O)C(=O)O)cc3)c2c(=O)[nH]1 [Pemetrexed] (partner 0.2 µM)
Procedure, shortened: (§1)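 Relative viability was taken as the ratio of nuclei in treated wells to nuclei in vehicle wells. Lung cancer cell lines in 1536-well plates received compounds by pin tool one day after seeding, either one drug alone or a fixed anchor-drug dose plus five library-drug doses (not always all listed) in √10 steps. Nuclei were counted on 4× images after 5 days of treatment, and values are medians of duplicate plates.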

CUDC-101 + OSI-027 = compound: C#Cc1cccc(Nc2ncnc3cc(OC)c(OCCCCCCC(=O)NO)cc23)c1 [CUDC-101] + COc1cccc2cc(-c3nc([C@H]4CC[C@H](C(=O)O)CC4)n4ncnc(N)c34)[nH]c12 [OSI-027] (partner 0.5 µM)
Procedure, shortened: as §1

CUDC-101 + Luminespib = compound: C#Cc1cccc(Nc2ncnc3cc(OC)c(OCCCCCCC(=O)NO)cc23)c1 [CUDC-101] + CCNC(=O)c1noc(-c2cc(C(C)C)c(O)cc2O)c1-c1ccc(CN2CCOCC2)cc1 [Luminespib] (partner 0.01 µM)
Procedure, shortened: as §1

[2] = compound: C1=CC=C2C(=C1)N=C(S2)C(C#N)C3=NC(=NC=C3)NCCC4=CN=CC=C4 + O=C(c1cc(Cc2n[nH]c(=O)c3ccccc23)ccc1F)N1CCN(C(=O)C2CC2)CC1 [Olaparib] (partner 8 µM)
Procedure, shortened: as §1

Cell Line	relative viability ([1]; first compound 0.005 µM)	relative viability ([1]; first compound 0.01581 µM)	relative viability ([1]; first compound 0.1581 µM)	relative viability ([1]; first compound 0.5 µM)	relative viability (CUDC-101 + OSI-027; first compound 0.01 µM)	relative viability (CUDC-101 + OSI-027; first compound 0.03162 µM)	relative viability (CUDC-101 + OSI-027; first compound 0.1 µM)	relative viability (CUDC-101 + OSI-027; first compound 0.3162 µM)	relative viability (CUDC-101 + OSI-027; first compound 1 µM)	relative viability (CUDC-101 + Luminespib; first compound 0.01 µM)	relative viability (CUDC-101 + Luminespib; first compound 0.03162 µM)	relative viability (CUDC-101 + Luminespib; first compound 0.1 µM)	relative viability (CUDC-101 + Luminespib; first compound 0.3162 µM)	relative viability (CUDC-101 + Luminespib; first compound 1 µM)	relative viability ([2]; first compound 0.005 µM)	relative viability ([2]; first compound 0.01581 µM)	relative viability ([2]; first compound 0.1581 µM)	relative viability ([2]; first compound 0.5 µM)	relative viability ([1]; first compound 0.05 µM)	relative viability ([2]; first compound 0.05 µM)
LU99A	0.215	0.214	0.193	0.19	0.297	0.305	0.302	0.289	0.239	0.224	0.247	0.245	0.261	0.248	0.247	0.272	0.265	0.232	–	–
NCI-H322M	0.608	0.602	0.582	0.607	0.679	0.555	0.518	0.417	0.308	0.84	0.697	0.899	1.01	0.697	0.755	0.746	0.78	0.677	0.569	0.779
COR-L23	0.211	0.207	0.206	0.17	0.786	0.724	0.792	0.695	0.39	0.801	0.734	0.658	0.632	0.353	0.318	0.327	0.373	0.306	0.187	0.355
NCI-H1793	–	0.799	1.07	1.1	0.291	0.255	0.255	0.25	0.218	0.17	0.174	0.174	0.201	0.143	–	0.931	0.995	0.804	0.851	0.781
HARA	0.271	0.205	0.283	0.305	0.509	0.442	0.322	0.348	0.171	0.465	0.682	0.616	0.311	0.185	0.773	0.659	0.822	0.954	0.259	0.942
LXF-289	0.832	0.979	0.912	0.857	0.751	0.885	0.766	0.918	0.57	0.651	0.632	0.741	0.752	0.449	0.966	1.13	1.17	0.979	0.876	1.1
201T	0.348	0.337	0.313	0.357	0.801	0.703	–	0.752	0.687	1.03	0.988	0.981	1.08	1.02	0.829	0.837	0.905	0.706	0.349	0.802
LCLC-103H	0.497	0.502	0.461	0.468	0.45	0.42	0.485	0.435	0.433	0.975	0.931	0.943	0.92	0.754	0.628	0.829	0.849	0.649	0.458	0.764
NCI-H520	0.528	0.652	0.834	0.818	0.218	0.281	0.327	0.256	0.191	0.241	0.221	0.208	0.204	0.245	0.302	0.307	0.321	0.29	0.784	0.309
RERF-LC-KJ	0.468	0.505	0.507	0.502	0.517	0.612	0.674	0.585	0.401	1.36	1.3	1.25	1.18	0.794	0.923	0.993	0.97	0.44	0.465	0.895
NCI-H1975	0.286	0.303	0.331	0.26	0.658	0.75	0.728	0.813	0.698	0.336	0.155	0.254	0.351	0.213	0.658	0.866	0.913	0.475	0.295	0.78
PC-3 [JPC-3]	1.14	–	1.37	0.914	0.758	0.786	0.514	0.547	0.407	0.739	0.648	0.64	0.563	0.301	1.01	–	1.12	0.679	1.08	1.08
EPLC-272H	–	0.255	0.325	0.326	0.266	0.317	0.238	0.244	0.187	0.141	0.554	0.598	0.269	0.257	–	0.803	0.825	0.517	0.317	0.733
